Literature values as cited in patent US7829698B2, “Nano-particles comprising cucurbituril derivatives, pharmaceutical composition containing the same, and process for the preparation thereof” (Postech Foundation, priority 2003, dated 2010).
Peptide text beside a SMILES is read from it.

Settings: host cucurbituril

CCC(=O)O [CH3CH2COOH]
Kf (non-covalent coupling constant between cucurbituril and guest molecule): 590 M⁻¹

CC(C)[C@H](NC(=O)CN)C(=O)O [Gly-val] (H-Gly-Val-OH)
Kf (non-covalent coupling constant between cucurbituril and guest molecule): 1500 M⁻¹

N#CCCN [H2N(CH2)2CN]
Kf (non-covalent coupling constant between cucurbituril and guest molecule): 440 M⁻¹

NCCC(=O)O [H2N(CH2)2COOH]
Kf (non-covalent coupling constant between cucurbituril and guest molecule): 2300 M⁻¹

NCCCCCO [H2N(CH2)5OH]
Kf (non-covalent coupling constant between cucurbituril and guest molecule): 690 M⁻¹

C[C@H](N)C(=O)O [L-Ala]
Kf (non-covalent coupling constant between cucurbituril and guest molecule): 1000 M⁻¹

CC(C)[C@H](N)C(=O)O [L-Val]
Kf (non-covalent coupling constant between cucurbituril and guest molecule): 1400 M⁻¹

CC(C)C[C@H](N)C(=O)NCC(=O)O [Leu-gly] (H-Leu-Gly-OH)
Kf (non-covalent coupling constant between cucurbituril and guest molecule): 370 M⁻¹

CCCCCN [Me(CH2)4NH2]
Kf (non-covalent coupling constant between cucurbituril and guest molecule): 24000 M⁻¹

NCCCCCCN [NH2(CH2)6NH2]
Kf (non-covalent coupling constant between cucurbituril and guest molecule): 2.7e+06 M⁻¹

N[C@@H](Cc1ccccc1)C(=O)NCC(=O)O [Phe-gly] (H-Phe-Gly-OH)
Kf (non-covalent coupling constant between cucurbituril and guest molecule): 1100 M⁻¹

N[C@@H](Cc1ccccc1)C(=O)O [Phe]
Kf (non-covalent coupling constant between cucurbituril and guest molecule): 1400 M⁻¹
